Assay results: US20150265661A1, “PREBIOTIC EFFECT OF SIALYLLACTOSE” (Trustees of Boston College, priority 2012, published 2015)

Tests used:
[1] = test system: Bifidobacteria sp. (ten strains of Table 2); assay: Growth (OD 600 nm) and pH of bacterial strains in ZMB1 with oligosaccharide as sole carbon source; format: cell-based, Bifidobacterium longum, Bifidobacterium infantis; settings: for utilization as a primary carbon source by ten different Bifidobacteria: concentrations indicated in FIGS. 4 and 5; for numbers of bifidobacteria: in vitro fermentation, vs control; for prebiotic effects on Bifidobacteria strains: sialyllactose alone, FIG. 5
[2] = test system: Clostridium perfringens ATCC 13124; format: cell-based; settings: 48 h, sole carbon source, FIG. 4
Escherichia coli W3110 = assay: Growth (OD 600 nm) and pH of bacterial strains in ZMB1 with oligosaccharide as sole carbon source; format: cell-based; settings: 48 h, FIG. 4

Row | Compound | utilization as a primary carbon source by ten different Bifidobacteria [1] | numbers of bifidobacteria [1] | prebiotic effects on Bifidobacteria strains [1] | growth of the Bifidobacteria sp. ([1]; 48 h, sole carbon source (2'-FL 2 g/L, 3-FL 2 g/L, LDFT 1 g/L), vs control without substrate) | pH in the culture of Bifidobacteria ([1]; 48 h, sole carbon source, vs control without substrate) | growth of C. perfringens [2] | pH in the culture of C. perfringens [2] | growth of E. coli (Escherichia coli W3110) | pH in the culture of E. coli (Escherichia coli W3110)
1 | CC(=O)N[C@H]1[C@H]([C@H](O)[C@H](O)CO)O[C@@](O[C@H]2[C@@H](O)[C@@H](CO)O[C@@H](O[C@H]3[C@H](O)[C@@H](O)C(O)O[C@@H]3CO)[C@@H]2O)(C(=O)O)C[C@@H]1O (some centres unmarked) [3′-SL, 3′-sialyllactose] | could utilize | significantly higher | showed prebiotic effects on some Bifidobacteria strains | – | – | – | – | – | –
2 | lactodifucotetraose [LDFT] | could utilize | significantly higher | – | significantly increase | decrease the pH | no significant increase | no significant increase on its growth and decrease in pH | no significant increase | no significant increase on its growth and decrease in pH
3 | CC(=O)N[C@H]1[C@H]([C@H](O)[C@H](O)CO)O[C@@](OC[C@H]2O[C@@H](O[C@H]3[C@H](O)[C@@H](O)[C@H](O)O[C@@H]3CO)[C@H](O)[C@@H](O)[C@H]2O)(C(=O)O)C[C@@H]1O [6′-SL, 6′-sialyllactose] | could utilize | significantly higher | showed prebiotic effects on some Bifidobacteria strains | – | – | – | – | – | –
